What was measured:
N2a cells [1] = experiment: Protection against thapsigargin (TG)-induced cell death, N2a; assay type: cell-based, mouse; details: compound 20 μM; thapsigargin 1 μM; 24 hrs
In short: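 Cells pretreated with 20 μM compound for 2 h, then thapsigargin (15 μM HEK293, 1 μM N2a) for 24 h to induce ER stress. Viability by AlamarBlue fluorescence at 2 h as % RFU of control, binned A–D by % cell rescue.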

N2a cells [2] = experiment: Protection against hydrogen peroxide-induced cell death, N2a; assay type: cell-based, mouse; details: compound 40 μM; hydrogen peroxide 200 μM
In short: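 N2a cells were pretreated 2 h with compound at 40 μM, then exposed to 200 μM H2O2 for 40 min. AlamarBlue (10% v/v) was added and fluorescence read 2 h later. Viability expressed as % RFU of control, reported as % cell rescue.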

Ca^2+-ATPase = experiment: Ca2+-ATPase assay, microsomal preparations from HEK 293 cells; assay type: biochemical, human
Method: A Ca^2+-ATPase assay was performed using microsomal preparations from HEK 293 cells at a series of calcium concentrations corresponding to the physiological range, relative to controls. The ATP hydrolysis rate was measured over a range of calcium concentrations in the presence of test compounds using an NADH-linked, enzyme-coupled ATPase assay adapted for 96-well microplates, with Vmax determined by fitting the ATPase calcium-dependence to the Hill function. […] CaCl2 was added to set free [Ca^2+] to the specific values.

ob/ob mice = experiment: Effect on the level of blood glucose in ob/ob mice; assay type: in vivo, mouse; details: for blood glucose: 10 or 50 mg/kg i.p. once a day for 5 days, as early as day 2; for glucose level after the last injection: for over a week after the last injection
Method: Fasting glucose was measured at baseline and 10 hours after the administration of the test compound. Glucose levels were measured in blood samples drawn from the tail vein using the OneTouch Ultra 2 Meter (LifeScan, Inc.).

human islet microtissues = experiment: Protection of human pancreatic islets under cytokine stress; assay type: cell-based; details: 168 h, compound 5 μM, cytokine cocktail IL1-β, IFN-γ, TNF-α, 7 days, read-out: increase in viability over baseline (total ATP content)
Method: Human pancreatic islet microtissues treated with cytokines were used to model the conditions of Type 1 Diabetes in vitro. This study tested the effects of compounds on […] viability in human islets under cytokine stress. The model consisted of human islet microtissues from an HLA-A2 positive donor grown and separated in a 96-well plate (1 microtissue per well). The microtissues were treated for 7 days with a cocktail of cytokines (IL1-β 5 ng/mL, IFN-γ 25 ng/mL, TNF-α 25 ng/mL) and compound (5 μM) or vehicle. There were 6 microtissues treated per compound or vehicle. At day 7, the total ATP content was measured using CellTiter-Glo (Promega).

livers of ob/ob mice = experiment: Reduction of ER stress markers in liver of ob/ob mice (western blot); assay type: in vivo, mouse; details: 50 mg/kg
Method: Proteins were analyzed by western blot and quantified. Bands were normalized to GAPDH and expressed as 100% of ob/ob+vehicle (ob). Liver tissues were homogenized with a bench-top homogenizer in an ice-cold tissue lysis buffer. The homogenized samples were centrifuged at 8,000×g for 20 min at 4° C. The lipid layer was removed and the supernatant was transferred into Eppendorf tubes. After centrifuging at 16,000×g for 60 min at 4° C., the supernatants were normalized to the same concentration and boiled at 100° C. in 1× Laemmli buffer for 5 min. The lysate was cooled to room temperature before loading for Western blot analysis. Protein lysate was resolved on SDS polyacrylamide gel and transferred onto PVDF membrane at a voltage of 100 V for 2 hrs at 4° C. The membrane was blocked in 10% blocking reagent and incubated overnight with a primary antibody in Tris-buffered saline solution/Tween (TBST)/10% blocking reagent at 4° C. After incubation, the membrane was washed three times in TBST for 20 min and incubated at room temperature with a secondary antibody in TBST/10% blocking reagent for 1 hr. The membrane was washed three times for 20 min and developed using a chemiluminescence assay system. To strip a membrane for another primary antibody, the membrane was agitated at 50° C. for 20 min in a box with stripping buffer (2% SDS and 100 mM 2-mercaptoethanol in TBS, pH 7.5). […]

[3] = Pharmacokinetics in CD-1 mice; assay type: in vivo, mouse; details: for F / AUC / Cmax / half-life: CD-1 mice; for F: 10 mg/kg P.O. vs 2 mg/kg i.v.; for AUC / Cmax / half-life: mouse, plasma, 2 mg/kg i.v. or 10 mg/kg P.O.
In short: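 CD-1 mice (triplicate) dosed 2 mg/kg i.v. or 10 mg/kg oral gavage, formulated 1 mg/mL in DMSO/Tween 80/water (10/10/80). EDTA plasma sampled 0.25–24 h, acetonitrile-precipitated and quantified by positive-ion MRM LC/MS/MS against internal standard; PK parameters fitted from concentration–time data.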

Row | Compound | N2a Cells (TG-induced) cell rescue (N2a cells [1]) | N2a Cells (H2O2-induced) cell rescue (N2a cells [2]) | increase in baseline ATPase activity (Ca^2+-ATPase) | blood glucose (ob/ob mice) | glucose level after the last injection (ob/ob mice) | viability at 5 µM (human islet microtissues) | phosphorylation of PERK and elF2α (livers of ob/ob mice) | F [3] | pharmacokinetic properties as measured by CMAX, AUC and F (%) ([3]; compared with other SERCA modulators, see Table 6) | AUC [3] | Cmax [3] | half-life [3]
1 | Cc1ccc2cccc(NC(=O)c3ccc(N(C)C)cc3)c2n1 [Compound C18, 4-N,N-Dimethylamino-N-(2-methylquinolin-8-yl)benzamide] | A (A represents a value greater than 50% cell rescue) | B (B represents a value between 10% to 50% cell rescue) | greater than 15% | significantly lowered | identical to lean mice | > 50% | significantly reduced | 35% | significantly improved pharmacokinetic properties | 380 ng·h/mL | 900 nM | 53.4 min
2 | Cc1ccc2cccc(NC(=O)c3ccc(OC(C)C)cc3)c2n1 [Compound A12, 4-Isopropoxy-N-(2-methylquinolin-8-yl)benzamide] | B (B represents a value between 10% to 50% cell rescue) | B (B represents a value between 10% to 50% cell rescue) | 10-15% | significantly lowered | identical to lean mice | 20 to 50% | significantly reduced | 2.3% |  | 25.1 ng·h/mL | 200 nM | 13.4 min

From US11890279B2, “Quinolines that modulate SERCA and their use for treating disease” (Neurodon Corporation, priority 2020, dated 2024)
